pIC50: −log10 of the molar value.
What was measured:
[1] = tested on: anti-IgM-induced expression of CD69 on CD19 positive cells (B cells) in human PBMCs; assay: Assay C: PBMC IC50 assay (anti-IgM-induced CD69 expression); format: cell-based; conditions: anti-IgM stimulation
Protocol: Btk is critical for mediating the signalling of B cell antigen receptor (BCR) after anti-IgM stimulation. Based on this principle, a functional cell-based assay was established to determine the potency of compounds at inhibiting anti-IgM-induced expression of CD69, a downstream BCR signaling event, in freshly isolated human peripheral blood mononuclear cells (PBMCs). In the assay, a 90 μl PBMC suspension containing 2.5×10^5 cells was pre-treated with 10 μl of test compound at various concentrations for an hour, and then incubated overnight (approximately 16-18 hours) with 5 μl 420 μg/ml affiniPure F(ab′)2 fragment goat anti-human IgM Fc fragment per well (Dianova, Cat. No.: 109-006-129). After the incubation, the cells were washed and immunostained with an APC-labeled mouse anti-human CD69 (BD Biosciences; clone: FN50), a PerCP-Cy5.5 labelled mouse anti-human CD19 (BD Biosciences; clone: SJ25C1) and a FITC-labelled mouse anti-human CD3 (BD Biosciences; clone: HIT3a), and fixed for flow cytometric analysis of CD69 expression on CD19 positive cells (B cells). The percentage of CD69 expressing CD19 positive cells was plotted against the concentrations of test compounds to obtain a concentration response curve, and calculate an IC50 value as a measure of the potency of test compounds in the assay.

[2] = target: BTK C481S (His-TEV-hsBTK(328-659)(C481S)) (Homo sapiens (Human), UniProt Q06187, C481S); assay: Assay B: microfluidic off-chip mobility shift assay against BTK C481S enzyme; format: biochemical; conditions: BTK C481S mutant
Chain of BTK C481S (His-TEV-hsBTK(328-659)(C481S)) (Q06187 328-659 C481S): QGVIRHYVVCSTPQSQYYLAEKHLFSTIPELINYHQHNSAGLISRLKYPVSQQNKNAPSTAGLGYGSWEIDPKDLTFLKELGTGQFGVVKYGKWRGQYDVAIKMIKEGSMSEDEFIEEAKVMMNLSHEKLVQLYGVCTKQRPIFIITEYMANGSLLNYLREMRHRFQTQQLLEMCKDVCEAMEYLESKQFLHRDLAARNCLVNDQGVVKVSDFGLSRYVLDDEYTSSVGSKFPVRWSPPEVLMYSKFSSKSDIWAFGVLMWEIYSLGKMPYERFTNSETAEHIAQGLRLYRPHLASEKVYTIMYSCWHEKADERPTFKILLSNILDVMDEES
Protocol: The mechanics of the assay platform are described by the vendor (PerkinElmer, Hopkinton, Mass.) on their website at the following URL: http://caliperls.com.
5 uL of enzyme buffer and 7.5 uL of ATP/KinKDR peptide substrate mix were added to Matrix (#4315) 384-well, sterile, flat-bottom polypropylene plates (Thermo Fisher Scientific, Hudson, N.H.) with 125 nL of serially diluted compounds prepared in 100% DMSO, and incubated for 90 min. at 25° C. Following the incubation period, reactions were terminated by adding 65 uL quench buffer consisting of 100 mM HEPES, pH 7.5, 0.015% Brij-35 (30%), 0.277% Coating Reagent #3 (PerkinElmer, Mountain View, Calif.), 5% DMSO. Terminated reactions were monitored at −2 PSI, −3000 V/−700 Volts in a LabChip 3000 plate reader from Caliper Life Sciences, a PerkinElmer Company (Hopkinton, Mass.), and the activity was quantified by laser-induced fluorescence measuring the charge/mass difference between substrate and product resulting from peptide phosphorylation. IC50 and efficacy were determined by plotting log [Inhibitor] vs. % Activity in GeneData Screener (Basel, Switzerland).

full-length human BTK = full-length human BTK (Homo sapiens (Human), UniProt Q06187); assay: Assay A: microfluidic off-chip mobility shift assay against BTK enzyme; format: biochemical
Chain of full-length human BTK (Q06187 whole entry): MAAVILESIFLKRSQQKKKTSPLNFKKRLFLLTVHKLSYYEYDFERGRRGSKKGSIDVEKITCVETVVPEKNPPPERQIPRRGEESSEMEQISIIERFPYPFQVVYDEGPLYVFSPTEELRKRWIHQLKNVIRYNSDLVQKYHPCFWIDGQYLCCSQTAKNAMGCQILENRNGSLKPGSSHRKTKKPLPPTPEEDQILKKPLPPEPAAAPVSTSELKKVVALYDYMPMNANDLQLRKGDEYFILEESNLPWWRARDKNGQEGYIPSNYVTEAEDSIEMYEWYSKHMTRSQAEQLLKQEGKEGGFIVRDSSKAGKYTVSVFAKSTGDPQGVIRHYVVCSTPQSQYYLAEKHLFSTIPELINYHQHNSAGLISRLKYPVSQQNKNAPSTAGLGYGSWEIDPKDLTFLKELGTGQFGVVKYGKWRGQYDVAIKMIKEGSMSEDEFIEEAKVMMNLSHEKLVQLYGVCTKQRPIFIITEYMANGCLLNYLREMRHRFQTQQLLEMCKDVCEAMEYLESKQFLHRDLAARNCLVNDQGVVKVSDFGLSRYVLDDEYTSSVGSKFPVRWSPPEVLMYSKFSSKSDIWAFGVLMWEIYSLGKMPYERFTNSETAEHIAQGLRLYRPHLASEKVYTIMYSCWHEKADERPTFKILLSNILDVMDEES

| Structure (SMILES) | pIC50 [1] | pIC50 [2] | pIC50 (full-length human BTK) |
| --- | --- | --- | --- |
| Cc1cc(-c2ccnc3[nH]c(-c4cnn(C)c4)nc23)ccc1CNC(=O)c1nnc(C(C)(C)C)o1 [Example 103, 5-tert-Butyl-[1,3,4]oxadiazole-2-carboxylic acid 2-methyl-4-[2-(1-methyl-1H-pyrazol-4-yl)-3H-imidazo[4,5-b]pyridin-7-yl]-benzylamide] | > 7.00 | > 7.00 | > 7.00 |
| Cn1cc(-c2nc3c(-c4ccc(CN5CCOc6cc(C7CC7)cc(F)c6C5=O)c(F)c4)ccnc3[nH]2)cn1 [Example 34, 8-Cyclopropyl-6-fluoro-4-([2-fluoro-4-[2-(1-methyl-1H-pyrazol-4-yl)-3H-imidazo[4,5-b]pyridin-7-yl]phenyl]methyl)-2,3,4,5-tetrahydro-1,4-benzoxazepin-5-one] | 6.00 to 7.00 | > 7.00 | > 7.00 |
| Cn1cc(-c2nc3c(-c4ccc(C5(NC(=O)c6ccc(C(C)(C)C)cc6)CC5)cc4)ccnc3[nH]2)cn1 [Example 113, 4-tert-Butyl-N-(1-{4-[2-(1-methyl-1H-pyrazol-4-yl)-3H-imidazo[4,5-b]pyridin-7-yl]-phenyl}-cyclopropyl)-benzamide] | 6.00 to 7.00 | > 7.00 | > 7.00 |
| CN1CC=C(c2nc3c(-c4ccc(CNC(=O)c5nnc(C(C)(C)C)o5)c(F)c4)ccnc3[nH]2)CC1 [Example 139, 5-tert-Butyl-[1,3,4]oxadiazole-2-carboxylic acid 2-fluoro-4-[2-(1-methyl-1,2,3,6-tetrahydro-pyridin-4-yl)-3H-imidazo[4,5-b]pyridin-7-yl]-benzylamide] | 5.30 to 6.00 | > 7.00 | > 7.00 |
| Cn1cc(-c2nc3c(-c4ccc(CNC(=O)CCCC5CCCC5)c(F)c4)ccnc3[nH]2)cn1 [Example 16, 4-Cyclopentyl-N-{2-fluoro-4-[2-(1-methyl-1H-pyrazol-4-yl)-3H-imidazo[4,5-b]pyridin-7-yl]-benzyl}-butyramide] | < 5.30 | > 7.00 | > 7.00 |
| O=C1c2c(F)cc(C3CC3)cc2OCCN1c1cccc(-c2ccnc3[nH]c(-c4cccnc4)nc23)c1CO [Example 2, 8-Cyclopropyl-6-fluoro-4-[2-(hydroxymethyl)-3-[2-(pyridin-3-yl)-3H-imidazo[4,5-b]pyridin-7-yl]phenyl]-2,3,4,5-tetrahydro-1,4-benzoxazepin-5-one] | 5.30 to 6.00 | > 7.00 | > 7.00 |
| COc1ccc(-c2nc3c(-c4ccc(CNC(=O)c5ccc(C6CC6)cc5)c(F)c4)ccnc3[nH]2)cc1 [Example 63, 4-Cyclopropyl-N-([2-fluoro-4-[2-(4-methoxyphenyl)-3H-imidazo[4,5-b]pyridin-7-yl]phenyl]methyl) benzamide] | 5.30 to 6.00 | > 7.00 | > 7.00 |
| CC(C)(C)c1nc(C(=O)NCc2ccc(-c3ccnc4[nH]c(-c5ccc(C(O)CO)cn5)nc34)cc2F)no1 (stereo not shown) [Example 76, 5-tert-Butyl-N-[(4-[2-[5-(1,2-dihydroxyethyl)pyridin-2-yl]-3H-imidazo[4,5-b]pyridin-7-yl]-2-fluorophenyl)methyl]-1,2,4-oxadiazole-3-carboxamide] | > 7.00 | > 7.00 | > 7.00 |
| COc1ccc(-c2nc3c(-c4ccc(CN5CCOc6cc(C7CC7)cc(F)c6C5=O)c(F)c4)ccnc3[nH]2)nc1 [Example 40, 8-Cyclopropyl-6-fluoro-4-([2-fluoro-4-[2-(5-methoxypyridin-2-yl)-3H-imidazo[4,5-b]pyridin-7-yl]phenyl]methyl)-2,3,4,5-tetrahydro-1,4-benzoxazepin-5-one] | 6.00 to 7.00 | > 7.00 | > 7.00 |
| Cn1cc(-c2nc3nccc(-c4cccc(N5CCOc6cc(C7CC7)cc(F)c6C5=O)c4CO)c3[nH]2)cn1 [Example 42, 8-Cyclopropyl-6-fluoro-4-[2-(hydroxymethyl)-3-[2-(1-methyl-1H-pyrazol-4-yl)-1H-imidazo[4,5-b]pyridine-7-yl]phenyl]-2,3,4,5-tetrahydro-1,4-benzoxazepin-5-one] | 6.00 to 7.00 | > 7.00 | > 7.00 |
| CC(C)(C)c1nc(C(=O)NCc2ccc(-c3ccnc4[nH]c(-c5cccc(OC(F)(F)F)c5)nc34)cc2F)no1 [Example 74, 5-tert-Butyl-N-[(2-fluoro-4-[2-[3-(trifluoromethoxy)phenyl]-3H-imidazo[4,5-b]pyridin-7-yl]phenyl)methyl]-1,2,4-oxadiazole-3-carboxamide; trifluoroacetic acid] | 6.00 to 7.00 | > 7.00 | > 7.00 |
| Cn1cc(-c2nc3c(-c4ccc(CNC(=O)c5noc(C(C)(C)N)n5)c(F)c4)ccnc3[nH]2)cn1 [Example 58, 5-(2-Aminopropan-2-yl)-N-([2-fluoro-4-[2-(1-methyl-1H-pyrazol-4-yl)-3H-imidazo[4,5-b]pyridin-7-yl]phenyl]methyl)-1,2,4-oxadiazole-3-carboxamide] | 5.30 to 6.00 | > 7.00 | > 7.00 |
| C=CC(=O)Nc1cccc(-c2nc3nccc(-c4ccc(CNC(=O)c5nc(C(C)(C)C)no5)c(F)c4)c3[nH]2)c1 [Example 163, 3-tert-butyl-N-[(2-fluoro-4-[2-[3-(prop-2-enamido)phenyl]-3H-imidazo[4,5-b]pyridin-7-yl]phenyl)methyl]-1,2,4-oxadiazole-5-carboxamide] | > 7.00 | – | > 7.00 |
| CC(C)(C)c1noc(C(=O)NCc2ccc(-c3ccnc4[nH]c(-c5ccc(CN6CCOCC6)cn5)nc34)cc2F)n1 [Example 162, 3-tert-butyl-N-[(2-fluoro-4-[2-[5-(morpholin-4-ylmethyl)pyridin-2-yl]-3H-imidazo[4,5-b]pyridin-7-yl]phenyl)methyl]-1,2,4-oxadiazole-5-carboxamide] | > 7.00 | – | > 7.00 |
| CCn1cc(-c2nc3c(-c4ccc(CNC(=O)c5noc(C(C)(C)C)n5)c(F)c4)ccnc3[nH]2)cn1 [Example 131, 5-tert-Butyl-[1,2,4]oxadiazole-3-carboxylic acid 4-[2-(1-ethyl-1H-pyrazol-4-yl)-3H-imidazo[4,5-b]pyridin-7-yl]-2-fluoro-benzylamide] | > 7.00 | – | > 7.00 |
| CN(C)C(=O)N1CC=C(c2nc3c(-c4ccc(CNC(=O)c5noc(C(C)(C)C)n5)c(F)c4)ccnc3[nH]2)CC1 [Example 143, 4-[7-(4-{[(5-tert-Butyl-[1,2,4]oxadiazole-3-carbonyl)-amino]-methyl}-3-fluoro-phenyl)-3H-imidazo[4,5-b]pyridin-2-yl]-3,6-dihydro-2H-pyridine-1-carboxylic Acid Dimethylamide] | > 7.00 | – | > 7.00 |
| O=C(c1ccc(-c2nc3c(-c4cccc(N5CCOc6cc(C7CC7)cc(F)c6C5=O)c4CO)ccnc3[nH]2)cc1)N1CCOCC1 [Example 1, 8-Cyclopropyl-6-fluoro-4-[2-(hydroxymethyl)-3-(2-[4-[(morpholin-4-yl)carbonyl]phenyl]-3H-imidazo [4,5-b]pyridin-7-yl)phenyl]-2,3,4,5-tetrahydro-1,4-benzoxazepin-5-one] | 5.30 to 6.00 | – | > 7.00 |
| Cn1cc(-c2nc3c(-c4cccc(N5CCc6cc(C7CC7)ccc6C5=O)c4CO)ccnc3[nH]2)cn1 [Example 7, 6-cyclopropyl-2-(2-(hydroxymethyl)-3-(2-(1-methyl-1H-pyrazol-4-yl)-3H-imidazo[4,5-b]pyridin-7-yl)phenyl)-3,4-dihydroisoquinolin-1(2H)-one] | 5.30 to 6.00 | – | > 7.00 |
| Cc1c(NC(=O)c2ccc3c(c2)OCC3(C)C)cc(F)cc1-c1ccnc2[nH]c(-c3ccc(C(=O)N4CCOCC4)cc3)nc12 [Example 4, N-[5-Fluoro-2-methyl-3-(2-[4-[(morpholin-4-yl)carbonyl]phenyl]-3H-imidazo[4,5-b]pyridin-7-yl)phenyl]-3,3-dimethyl-2,3-dihydro-1-benzofuran-6-carboxamide] | 6.00 to 7.00 | – | > 7.00 |
| Cn1cc(-c2nc3c(-c4ccc(CNC(=O)c5noc(C6CC6)n5)c(F)c4)ccnc3[nH]2)cn1 [Example 59, 5-Cyclopropyl-N-([2-fluoro-4-[2-(1-methyl-1H-pyrazol-4-yl)-3H-imidazo[4,5-b]pyridin-7-yl]phenyl]methyl)-1,2,4-oxadiazole-3-carboxamide] | 6.00 to 7.00 | – | > 7.00 |
